Assay results reported in US11317630B2, “Method of controlling weeds” (Sumitomo Chemical Company, Limited, priority 2018, dated 2022).

Assays:
Format in all cases: in vivo
[1] = system: Amaranthus palmeri having an Arg128Gly, Arg128Met, Gly210 deletion or Gly399Ala mutation in PPO2, waterhemp having a Gly210 deletion mutation in PPO2, ragweeds …; test: Herbicidal effect, soil application with drift-reducing nozzle 7 days before sowing soybean (Example 1); settings: soil surface, TTI11004 nozzle, 10, 20, 40, 80, or 160 g/ha, 200 L/ha, greenhouse, soybean sown after 7 days, examined after 14 days
From the text: Amaranthus palmeri having an Arg128Gly mutation in PPO2, Amaranthus palmeri having an Arg128Met mutation in PPO2, Amaranthus palmeri having a Gly210 deletion mutation in PPO2, Amaranthus palmeri having a Gly399Ala mutation in PPO2, waterhemp having a Gly210 deletion mutation in PPO2, and ragweeds having Arg128Leu in PPO2 are sown in a plastic pot. On the same day, a compound X is applied to the surface of soil by using a drift-reducing nozzle (TTI11004 manufactured by Teejet Company). The amount of the compound X to be applied is 10, 20, 40, 80, or 160 g/ha and the amount of spray dilution is 200 L/ha. Then, these weeds are cultivated in a greenhouse and Roundup Ready 2 Xtend soybean seeds are sown after 7 days, to examine the effects on the weeds and phytotoxic effects on the soybean after 14 days.

[2] = system: Amaranthus palmeri having an Arg128Gly, Arg128Met, Gly210 deletion or Gly399Ala mutation in PPO2, waterhemp having a Gly210 deletion mutation in PPO2, ragweeds …; test: Herbicidal effect, soil application with drift-reducing nozzle on the day of sowing weeds and soybean (Example 2); settings: soil surface on day of sowing, TTI11004 nozzle, 10, 20, 40, 80, or 160 g/ha, 200 L/ha, greenhouse, examined after 21 days
From the text: Amaranthus palmeri having an Arg128Gly mutation in PPO2, Amaranthus palmeri having an Arg128Met mutation in PPO2, Amaranthus palmeri having a Gly210 deletion mutation in PPO2, Amaranthus palmeri having a Gly399Ala mutation in PPO2, waterhemp having a Gly210 deletion mutation in PPO2, ragweeds having Arg128Leu in PPO02, and a Roundup Ready 2 Xtend soybean are sown in a plastic pot. On the same day, a compound X is applied to the surface of soil by using a drift-reducing nozzle (TTI11004 manufactured by Teejet Company). The amount of the compound X to be applied is 10, 20, 40, 80, or 160 g/ha and the amount of spray dilution is 200 L/ha. Then, the weeds and soybean are cultivated in a greenhouse to examine the effects on the weeds and phytotoxic effects on the soybean after 21 days.

[3] = system: Amaranthus palmeri having an Arg128Gly, Arg128Met, Gly210 deletion or Gly399Ala mutation in PPO2, waterhemp having a Gly210 deletion mutation in PPO2, ragweeds …; test: Herbicidal effect, foliar treatment with drift-reducing nozzle 21 days after sowing (Example 3); settings: foliar treatment 21 days after sowing, TTI11004 nozzle, 10, 20, 40, 80, or 160 g/ha, 200 L/ha, greenhouse, examined 14 days after treatment
From the text: Amaranthus palmeri having an Arg128Gly mutation in PPO2, Amaranthus palmeri having an Arg128Met mutation in PPO2, Amaranthus palmeri having a Gly210 deletion mutation in PPO2, Amaranthus palmeri having a Gly399Ala mutation in PPO2, waterhemp having a Gly210 deletion mutation in PPO2, ragweeds having Arg128Leu in PPO02, and a Roundup Ready 2 Xtend soybean are sown in a plastic pot. Then, the weeds and soybean are cultivated in a greenhouse and a compound X is applied to perform foliar treatment by using a drift-reducing nozzle (TTI11004 manufactured by Teejet Company) 21 days after sowing. The amount of the compound X to be applied is 10, 20, 40, 80, or 160 g/ha and the amount of spray dilution is 200 L/ha. Then, the weeds and soybean are further cultivated in a greenhouse to examine the effects on the weeds and phytotoxic effects on the soybean 14 days after treatment.

Measured: effects on the weeds

CCOC(=O)COc1ncccc1Oc1cc(-n2c(=O)cc(C(F)(F)F)n(C)c2=O)c(F)cc1Cl [compound X, Ethyl [3-[2-chloro-4-fluoro-5-(l-methyl-6-trifluoromethyl-2,4-dioxo-1,2,3,4-tetrahydropyrimidine-3-yl)phenoxy]-2-pyridyloxy]acetate]
valuable effect: all assays above
